# Test system: PC12 cells
# Assay: Measurements of cGMP in rat PC12 cell line (cGMP accumulation, enzyme immunoassay)
# Type: cell-based
# Conditions: for EC50: PC-12, 0.75 h
# Experimental: Measurements of cGMP in Rat PC12 Cell Line
# cGMP contributes to the function and interaction of several vascular cell types and its dysfunction is involved in major cardiovascular diseases such as hypertension, diabetic complications, atherosclerosis, and tissue infarction. Therefore the extent of cGMP formation elicited by the compounds of the inventions was evaluated in the rat pheochromocytoma (PC12) cell line.
# Cells were maintained at 37° C. in DMEM medium enriched with 10% horse serum and 5% foetal bovine serum under 5% CO2 atmosphere. At the time of experiments the cells were washed once with Hank's Balanced Salt Solution (HBSS) supplemented with 0.05% ascorbic acid and preincubated in the same buffer for 10 min in a floating water bath. After the preincubation step, cells were exposed for additional 45 min to either control conditions or increasing concentrations of test compounds ranging from 0.1 to 25 μM, in the presence of the phosphodiesterase inhibitor, IBMX (100 μM) and the NO-independent activator of soluble guanylyl cyclase, YC-1 (20 μM). The reaction was terminated by the removal of the incubating buffer and consecutive addition of 100 μl of absolute ethanol. The organic extracts were then evaporated to dryness and the residues dissolved in aqueous buffer for quantitative determination of intracellular cGMP levels using the cGMP enzyme immunoassay kit.
# The obtained results reported in Table 1 are expressed as EC50 (μM) and efficacy Emax (% of vehicle). As shown in the table the nitroderivatives of carvedilol induced a consistent increase of intracellular cGMP formation in PC12 cell line. Conversely, this effect was not induced by the parent compound.
# [1] = 45 min exposure, 0.1 to 25 μM test compound, in presence of IBMX (100 μM) and YC-1 (20 μM)
Structure (SMILES),EC50 [1] [nM],"EC50, cGMP accumulation in PC12 cells [1]","Emax (% of vehicle), cGMP accumulation in PC12 cells [1]",increase of intracellular cGMP formation in PC12 cell line (in words) (summary statement on Table 1)
"COc1ccccc1OCCNCC(COc1cccc2[nH]c3ccccc3c12)OC(=O)c1ccc(CO[N+](=O)[O-])cc1 (centres unmarked) [Compound of example 1, 4-(Nitrooxymethyl)benzoic acid 1-(9H-carbazol-4-yloxy)-3-[[2-(2-methoxyphenoxy)ethyl]amino]-2-propanoate]",2300,–,480 % of vehicle,–
COc1ccccc1OCCNCC(O)COc1cccc2[nH]c3ccccc3c12 (centres unmarked) [Carvedilol],–,Not effective,Not effective,not induced

# More lines, main results first:
EC50 [1] [nM],"EC50, cGMP accumulation in PC12 cells [1]",Structure (SMILES),"Emax (% of vehicle), cGMP accumulation in PC12 cells [1]",increase of intracellular cGMP formation in PC12 cell line (in words) (summary statement on Table 1)
1700,–,COc1ccccc1OCCN(CC(O)COc1cccc2[nH]c3ccccc3c12)C(=O)CCO[N+](=O)[O-] (centres unmarked) [Compound of example 4],395 % of vehicle,–
600,–,COc1ccccc1OCCN(CC(O)COc1cccc2[nH]c3ccccc3c12)C(=O)CCCCCO[N+](=O)[O-] (centres unmarked) [Compound of example 5],322 % of vehicle,–
1800,–,"COc1ccccc1OCCN(CC(O)COc1cccc2[nH]c3ccccc3c12)C(=O)c1ccc(CO[N+](=O)[O-])cc1 (centres unmarked) [Compound of example 3, 1-(9H-carbazol-4-yloxy)-3-[[2-(2-methoxyphenoxy)ethyl][(4-nitrooxymethyl)benzoyl]amino]-2-propanol]",565 % of vehicle,–
